For one compound, IC50, solubility and logD results are on record in ChEMBL document CHEMBL4715905, “Solution Conformations Shed Light on PROTAC Cell Permeability” (ACS Med Chem Lett, 2021).

Values after ≈ are worked out from the molar mass of the structure shown.

Series [1] concerns the target Mitogen-activated protein kinase 7 (Homo sapiens, UniProt Q13164). The series can be described thus: Inhibition of recombinant human GST-tagged ERK5 (1 to 398 assessed as phosphorylated peptide substrate incubated for 60 mins by TR-FRET based biochemical assay. (Time-resolved FRET reads energy transfer from a long-lived donor to a nearby acceptor.)
Series [2] in a line: Solubility of compound in PBS buffer at pH 6.5. Format: physicochemical.
A short description of series [3]: Lipophilicity, logD of compound at pH 7.5. The note with it: buffer. Format: physicochemical.

Sequence of Mitogen-activated protein kinase 7 (Q13164 whole entry): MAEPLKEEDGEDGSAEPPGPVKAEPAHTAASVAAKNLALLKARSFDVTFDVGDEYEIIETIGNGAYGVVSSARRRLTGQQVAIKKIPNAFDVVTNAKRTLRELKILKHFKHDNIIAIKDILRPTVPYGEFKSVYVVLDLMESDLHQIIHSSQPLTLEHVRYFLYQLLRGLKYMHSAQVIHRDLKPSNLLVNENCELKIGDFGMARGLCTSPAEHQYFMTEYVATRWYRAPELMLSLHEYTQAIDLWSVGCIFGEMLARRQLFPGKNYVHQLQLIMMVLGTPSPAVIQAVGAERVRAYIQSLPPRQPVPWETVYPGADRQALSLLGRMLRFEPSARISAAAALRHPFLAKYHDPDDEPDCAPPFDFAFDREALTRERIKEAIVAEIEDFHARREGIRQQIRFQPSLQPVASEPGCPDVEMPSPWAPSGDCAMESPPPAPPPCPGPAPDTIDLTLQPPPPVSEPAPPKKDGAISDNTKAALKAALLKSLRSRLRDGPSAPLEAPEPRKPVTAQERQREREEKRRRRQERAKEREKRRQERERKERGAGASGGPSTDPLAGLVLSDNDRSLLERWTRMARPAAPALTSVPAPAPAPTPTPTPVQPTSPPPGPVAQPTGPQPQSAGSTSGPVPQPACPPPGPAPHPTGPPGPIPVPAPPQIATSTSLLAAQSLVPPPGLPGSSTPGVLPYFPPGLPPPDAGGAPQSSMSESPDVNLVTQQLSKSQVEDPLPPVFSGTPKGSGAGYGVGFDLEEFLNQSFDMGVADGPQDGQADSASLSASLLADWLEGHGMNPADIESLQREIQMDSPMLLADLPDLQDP

As to `Cc1ncsc1-c1ccc(CNC(=O)[C@@H]2C[C@@H](O)CN2C(=O)[C@@H](NC(=O)COCCOCCNC(=O)COc2cnc3c(C4CCN(C(=O)c5ccc(OC(F)(F)F)cc5)CC4)ncnc3c2)C(C)(C)C)cc1`, the IC50 – broadly, the concentration needed to halve the response being measured – in series [1] worked out at 1.23 µM. In series [2], the concentration in solution (solubility) came to 7 µg/mL (≈ 6.77 µM). Besides, the logD – broadly, lipophilicity at a set pH, counting ionised and neutral species – in series [3] amounted to 2.68.
